In PubChem BioAssay AID212 (DTP/NCI, 2004):
Where “and” joins values, the source holds several entries; their conditions need not be identical. Equal entries are not always repeated. Inconclusive results are not listed.

Tested on: BDF1 mice, colon carcinoma 38 sc, T/C %
Assay: NCI In Vivo Anticancer Drug Screen. Data for tumor model Colon Carcinoma 38 (subcutaneous) in B6D2F1 (BDF1) mice
Settings: endpoint: median tumor weight (est.), higher = larger tumour
Outline: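 Ratio of survival or tumor size, compound-treated animals relative to vehicle controls, in tumor-bearing mice.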

[1] = dose: 25.0 mg/kg/injection, schedule: Q07DX002 (ip), vehicle: saline with Tween-80
[2] = dose: 50.0 mg/kg/injection, schedule: Q07DX002 (ip), vehicle: saline with Tween-80
[3] = dose: 6.25 mg/kg/injection, schedule: Q07DX002 (ip), vehicle: saline
[4] = dose: 12.5 mg/kg/injection, schedule: Q07DX002 (ip), vehicle: saline
[5] = dose: 25.0 mg/kg/injection, schedule: Q07DX002 (ip), vehicle: saline
[6] = dose: 50.0 mg/kg/injection, schedule: Q07DX002 (ip), vehicle: saline

CCC12C[N+]3([O-])CCc4c([nH]c5ccccc45)C(C(=O)OC)(c4cc5c(cc4OC)N(C)C4C(O)(C(=O)OC)C(OC(C)=O)C6(CC)C=CCN7CCC54C76)CC(C3)C1O2 (stereo unspecified)
T/C (dose: 1.25 mg/kg/injection, schedule: Q07DX002 (ip), vehicle: water): 113 % of control | T/C (dose: 2.5 mg/kg/injection, schedule: Q07DX002 (ip), vehicle: water): 90 % of control | T/C (dose: 5.0 mg/kg/injection, schedule: Q07DX002 (ip), vehicle: water): 84 % of control | T/C (dose: 10.0 mg/kg/injection, schedule: Q07DX002 (ip), vehicle: water): 108 % of control | T/C (dose: 20.0 mg/kg/injection, schedule: Q07DX002 (ip), vehicle: water): 82 % of control | T/C (dose: 40.0 mg/kg/injection, schedule: Q07DX002 (ip), vehicle: water): 94 % of control

Nc1nc2c(C(=O)N3CCCC3)nnn2c2ccccc12
T/C (dose: 12.5 mg/kg/injection, schedule: Q07DX002 (ip), vehicle: saline with Tween-80): 98 % of control | T/C [1]: 105 % of control | T/C [2]: 100 % of control | T/C (dose: 100.0 mg/kg/injection, schedule: Q07DX002 (ip), vehicle: saline with Tween-80): 116 % of control

OCCN1CCN(CC/C=C2/c3ccccc3Sc3ccc(C(F)(F)F)cc32)CC1
T/C (dose: 1.56 mg/kg/injection, schedule: Q07DX002 (ip), vehicle: saline): 110 % of control | T/C (dose: 3.12 mg/kg/injection, schedule: Q07DX002 (ip), vehicle: saline): 121 % of control | T/C [3]: 100 % of control | T/C [4]: 95 % of control | T/C [5]: 120 % of control | T/C [6]: 68 % of control

CCC(C)C(=O)OC1C(=O)OC2CC3C(C)=CC(=O)C(O)C3(C)C3C4(O)OCC23C1C(C)C4O (stereo unspecified)
T/C (dose: 0.5 mg/kg/injection, schedule: Q07DX002 (ip), vehicle: suspension in saline): 90 % of control | T/C (dose: 1.0 mg/kg/injection, schedule: Q07DX002 (ip), vehicle: suspension in saline): 77 % of control | T/C (dose: 2.0 mg/kg/injection, schedule: Q07DX002 (ip), vehicle: suspension in saline): 58 % of control | T/C (dose: 4.0 mg/kg/injection, schedule: Q07DX002 (ip), vehicle: suspension in saline): 88 % of control | T/C (dose: 8.0 mg/kg/injection, schedule: Q07DX002 (ip), vehicle: suspension in saline): 44 % of control

Cc1ccc(S(=O)(=O)N/N=C/C(Br)=C(/Br)C(=O)O)cc1
T/C (dose: 25.0 mg/kg/injection, schedule: Q07DX002 (ip), vehicle: Klucel (hydroxypropylcellulose) (HPC)): 94 % of control | T/C (dose: 100.0 mg/kg/injection, schedule: Q07DX002 (ip), vehicle: Klucel (hydroxypropylcellulose) (HPC)): 124 % of control and 100 % of control | T/C (dose: 200.0 mg/kg/injection, schedule: Q07DX002 (ip), vehicle: Klucel (hydroxypropylcellulose) (HPC)): 88 % of control | T/C (dose: 400.0 mg/kg/injection, schedule: Q07DX002 (ip), vehicle: Klucel (hydroxypropylcellulose) (HPC)): 72 % of control

COc1cc(C[C@H]2c3cc(OC)c(OC)cc3CCN2C)c(Oc2cc3c(cc2OC)-c2c(OC)c(OC)cc4c2[C@H](C3)N(C)CC4)cc1OC
T/C (dose: 25.0 mg/kg/injection, schedule: Q01DX005 (ip), vehicle: saline): 59 % of control | T/C (dose: 25.0 mg/kg/injection, schedule: Q04DX003 (ip), vehicle: saline): 116 % of control | T/C (dose: 50.0 mg/kg/injection, schedule: Q01DX005 (ip), vehicle: saline): 198 % of control | T/C (dose: 50.0 mg/kg/injection, schedule: Q04DX003 (ip), vehicle: saline): 60 % of control | T/C (dose: 100.0 mg/kg/injection, schedule: Q01DX005 (ip), vehicle: saline): 64 % of control | T/C (dose: 100.0 mg/kg/injection, schedule: Q04DX003 (ip), vehicle: saline): 76 % of control | T/C (dose: 200.0 mg/kg/injection, schedule: Q01DX005 (ip), vehicle: saline): 36 % of control

CN1CCN(CCCN2c3ccccc3Sc3ccc(C(F)(F)F)cc32)CC1
T/C (dose: 6.25 mg/kg/injection, schedule: Q07DX002 (ip), vehicle: saline with Tween-80): 104 % of control | T/C [3]: 116 % of control | T/C [4]: 112 % of control | T/C [1]: 91 % of control | T/C [5]: 97 % of control | T/C [2]: 96 % of control | T/C [6]: 90 % of control | T/C (dose: 100.0 mg/kg/injection, schedule: Q07DX002 (ip), vehicle: saline): 96 % of control | T/C (dose: 200.0 mg/kg/injection, schedule: Q07DX002 (ip), vehicle: saline): 74 % of control
